Laboratory results from ChEMBL document CHEMBL3217463, “Design, synthesis and biological evaluation of -lactam hydroxamate based TACE inhibitors” (Medchemcomm, 2011).

Assays:
[1] = biological target: T1, Disintegrin and metalloproteinase domain-containing protein 17 (Homo sapiens, UniProt P78536); assay: Ratio of IC50 for human catalytic domain of TACE to IC50 for MMP9 (unknown origin)
[2] = test system: Rattus norvegicus; assay: Toxicity in Wistar rat assessed as RBC count at 100 mg/kg, po bid for 28 days (reference value: 7.38 +/- 0.11 10^6/ul); assay type: organism-based; set-up: dose 100 mg/kg, route oral; details: in vivo, 672 h
[3] = test system: Blood; assay: Antiinflammatory activity in human whole blood assessed as inhibition of LPS-induced TNFalpha secretion by ELISA; assay type: functional, tissue-based
[4] = biological target: T1, Disintegrin and metalloproteinase domain-containing protein 17; assay: Ratio of IC50 for human catalytic domain of TACE to IC50 for MMP3 (unknown origin)
[5] = test system: Rattus norvegicus; assay: Toxicity in Wistar rat assessed as alanine aminotransferase at 100 mg/kg, po bid for 28 days (reference value: 20.78 +/- 1.31 U/L); assay type: organism-based; set-up: dose 100 mg/kg, route oral; details: in vivo, 672 h
[6] = biological target: T1, Disintegrin and metalloproteinase domain-containing protein 17; assay: Ratio of IC50 for human catalytic domain of TACE to IC50 for MMP7 (unknown origin)
[7] = test system: Rattus norvegicus; assay: Toxicity in Wistar rat assessed as relative kidney weight at 100 mg/kg, po bid for 28 days (reference value: 0.821 +/- 0.03 %); assay type: organism-based; set-up: dose 100 mg/kg, route oral; details: in vivo, 672 h
[8] = Half life in Wistar rat at 5 mg/kg, iv; assay type: ADME, organism-based; set-up: dose 5 mg/kg, route intravenous; details: in vivo
[9] = test system: Rattus norvegicus; assay: Toxicity in Wistar rat assessed as relative brain weight at 100 mg/kg, po bid for 28 days (reference value: 0.727+/- 0.024 %); assay type: organism-based; set-up: dose 100 mg/kg, route oral; details: in vivo, 672 h
[10] = biological target: 72 kDa type IV collagenase (Homo sapiens, UniProt P08253); assay: Inhibition of MMP2 (unknown origin) by fluorescence-based FRET assay
[11] = AUC in Wistar rat at 5 mg/kg, iv; assay type: ADME, organism-based; set-up: dose 5 mg/kg, route intravenous; details: plasma
[12] = biological target: T2, Matrilysin (Homo sapiens, UniProt P09237); assay: Inhibition of MMP7 (unknown origin) by fluorescence-based FRET assay
T2 sequence (P09237 whole entry): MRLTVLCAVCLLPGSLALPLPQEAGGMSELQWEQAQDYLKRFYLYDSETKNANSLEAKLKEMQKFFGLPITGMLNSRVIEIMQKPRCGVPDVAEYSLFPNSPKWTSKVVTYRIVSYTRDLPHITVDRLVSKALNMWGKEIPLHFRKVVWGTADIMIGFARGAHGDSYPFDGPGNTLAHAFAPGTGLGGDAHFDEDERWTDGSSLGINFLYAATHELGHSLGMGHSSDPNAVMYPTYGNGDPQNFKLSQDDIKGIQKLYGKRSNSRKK

[13] = biological target: Stromelysin-1 (Homo sapiens, UniProt P08254); assay: Inhibition of MMP3 (unknown origin) by fluorescence-based FRET assay
[14] = test system: Rattus norvegicus; assay: Toxicity in Wistar rat assessed as alkaline phosphatase at 100 mg/kg, po bid for 28 days (reference value: 134.66 +/- 5.3 U/L); assay type: organism-based; set-up: dose 100 mg/kg, route oral; details: in vivo, 672 h
[15] = test system: Rattus norvegicus; assay: Toxicity in Wistar rat assessed as WBC count at 100 mg/kg, po bid for 28 days (reference value: 8.20 +/- 0.33 10^3/ul); assay type: organism-based; set-up: dose 100 mg/kg, route oral; details: in vivo, 672 h
[16] = test system: Rattus norvegicus; assay: Toxicity in Wistar rat assessed as body weight at 100 mg/kg, po bid for 28 days; assay type: organism-based; set-up: dose 100 mg/kg, route oral; details: in vivo, 672 h
[17] = test system: Rattus norvegicus; assay: Toxicity in Wistar rat assessed as aspartate aminotransferase at 100 mg/kg, po bid for 28 days (reference value: 147.16 +/- 11.75 U/L); assay type: organism-based; set-up: dose 100 mg/kg, route oral; details: in vivo, 672 h
[18] = test system: Rattus norvegicus; assay: Toxicity in Wistar rat assessed as total bilirubin at 100 mg/kg, po bid for 28 days (reference value: 0.14 +/- 0.01 mg/dL); assay type: organism-based; set-up: dose 100 mg/kg, route oral; details: in vivo, 672 h
[19] = test system: Mus musculus; assay: Antiinflammatory activity in po dosed Swiss Albino mouse assessed as inhibition of LPS-induced TNFalpha secretion in blood treated 0.5 hrs before LPS and measured after 1 hr of LPS stimulus by ELISA; assay type: functional
[20] = biological target: Matrix metalloproteinase-14 (Homo sapiens, UniProt P50281); assay: Inhibition of MMP14 (unknown origin) by fluorescence-based FRET assay
[21] = biological target: T1, Disintegrin and metalloproteinase domain-containing protein 17; assay: Ratio of IC50 for human catalytic domain of TACE to IC50 for MMP8 (unknown origin)
[22] = biological target: Neutrophil collagenase (Homo sapiens, UniProt P22894); assay: Inhibition of MMP8 (unknown origin) by fluorescence-based FRET assay
[23] = test system: Rattus norvegicus; assay: Elimination rate constant in Wistar rat at 5 mg/kg, po; assay type: ADME, organism-based; set-up: dose 5 mg/kg, route oral; details: in vivo
[24] = biological target: T1, Disintegrin and metalloproteinase domain-containing protein 17; assay: Ratio of IC50 for human catalytic domain of TACE to IC50 for MMP1 (unknown origin)
[25] = AUC in Wistar rat at 5 mg/kg, po; assay type: ADME, organism-based; set-up: dose 5 mg/kg, route oral; details: plasma
[26] = test system: Rattus norvegicus; assay: Toxicity in Wistar rat assessed as relative heart weight at 100 mg/kg, po bid for 28 days (reference value: 0.345 +/- 0.007 %); assay type: organism-based; set-up: dose 100 mg/kg, route oral; details: in vivo, 672 h
[27] = test system: Rattus norvegicus; assay: Toxicity in Wistar rat assessed as relative spleen weight at 100 mg/kg, po bid for 28 days (reference value: 0.201+/- 0.007 %); assay type: organism-based; set-up: dose 100 mg/kg, route oral; details: in vivo, 672 h
[28] = Oral bioavailability in Wistar rat at 5 mg/kg; assay type: ADME, organism-based; details: in vivo
[29] = test system: Rattus norvegicus; assay: Toxicity in Wistar rat assessed as relative liver weight at 100 mg/kg, po bid for 28 days (reference value: 3.659 +/- 0.1 %); assay type: organism-based; set-up: dose 100 mg/kg, route oral; details: in vivo, 672 h
[30] = biological target: T3, Disintegrin and metalloproteinase domain-containing protein 10 (Homo sapiens, UniProt O14672); assay: Inhibition of ADAM10 (unknown origin) using fluorescent substrate by fluorescence-based FRET assay
T3 sequence (O14672 whole entry): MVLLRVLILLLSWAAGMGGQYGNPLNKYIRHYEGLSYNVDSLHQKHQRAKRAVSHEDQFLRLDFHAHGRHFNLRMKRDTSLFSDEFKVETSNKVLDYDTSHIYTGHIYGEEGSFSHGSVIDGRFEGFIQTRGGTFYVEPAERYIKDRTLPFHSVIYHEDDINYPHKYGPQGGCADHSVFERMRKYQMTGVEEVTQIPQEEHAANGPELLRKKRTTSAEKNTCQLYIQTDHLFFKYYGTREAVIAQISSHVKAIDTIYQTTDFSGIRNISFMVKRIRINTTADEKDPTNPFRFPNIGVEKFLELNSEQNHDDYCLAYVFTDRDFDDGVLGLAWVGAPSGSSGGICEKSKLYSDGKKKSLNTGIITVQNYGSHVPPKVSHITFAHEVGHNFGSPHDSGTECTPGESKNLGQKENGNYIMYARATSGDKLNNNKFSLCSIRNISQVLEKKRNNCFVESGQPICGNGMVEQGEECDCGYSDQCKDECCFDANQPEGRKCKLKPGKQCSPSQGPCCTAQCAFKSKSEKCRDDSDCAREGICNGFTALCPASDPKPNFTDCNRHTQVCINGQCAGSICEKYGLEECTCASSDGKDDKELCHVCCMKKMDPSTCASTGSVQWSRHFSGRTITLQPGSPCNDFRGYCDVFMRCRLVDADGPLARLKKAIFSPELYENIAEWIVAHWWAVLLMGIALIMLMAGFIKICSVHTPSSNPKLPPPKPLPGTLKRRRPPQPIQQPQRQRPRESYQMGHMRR

[31] = test system: Rattus norvegicus; assay: Half life in Wistar rat at 5 mg/kg, po; assay type: ADME, organism-based; set-up: dose 5 mg/kg, route oral; details: in vivo
[32] = Elimination rate constant in Wistar rat at 5 mg/kg, iv; assay type: ADME, organism-based; set-up: dose 5 mg/kg, route intravenous; details: in vivo

T1 sequence (P78536 whole entry, the tested form may be a part): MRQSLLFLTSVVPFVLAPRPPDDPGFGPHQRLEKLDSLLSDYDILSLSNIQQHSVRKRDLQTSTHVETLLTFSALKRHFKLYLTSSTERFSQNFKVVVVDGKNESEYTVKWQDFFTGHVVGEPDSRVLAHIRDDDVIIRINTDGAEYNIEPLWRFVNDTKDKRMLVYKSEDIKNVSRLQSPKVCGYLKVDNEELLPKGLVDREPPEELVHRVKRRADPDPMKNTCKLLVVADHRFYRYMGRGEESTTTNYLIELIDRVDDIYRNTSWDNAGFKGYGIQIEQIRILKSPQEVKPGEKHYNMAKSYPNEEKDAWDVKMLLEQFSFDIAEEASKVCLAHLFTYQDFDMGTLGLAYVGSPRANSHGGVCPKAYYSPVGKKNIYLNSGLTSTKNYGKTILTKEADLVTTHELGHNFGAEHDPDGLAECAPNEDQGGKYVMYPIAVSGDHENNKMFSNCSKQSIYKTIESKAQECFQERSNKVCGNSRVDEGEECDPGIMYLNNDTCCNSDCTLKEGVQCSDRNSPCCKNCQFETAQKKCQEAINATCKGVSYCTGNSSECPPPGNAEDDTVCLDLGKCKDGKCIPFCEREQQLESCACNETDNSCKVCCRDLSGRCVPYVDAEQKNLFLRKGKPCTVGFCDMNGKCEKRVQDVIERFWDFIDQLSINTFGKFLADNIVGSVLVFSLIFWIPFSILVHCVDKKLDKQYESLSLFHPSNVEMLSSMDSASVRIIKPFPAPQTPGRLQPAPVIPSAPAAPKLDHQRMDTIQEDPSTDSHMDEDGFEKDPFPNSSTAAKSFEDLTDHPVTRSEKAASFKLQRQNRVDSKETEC
Chain of Stromelysin-1 (P08254 whole entry): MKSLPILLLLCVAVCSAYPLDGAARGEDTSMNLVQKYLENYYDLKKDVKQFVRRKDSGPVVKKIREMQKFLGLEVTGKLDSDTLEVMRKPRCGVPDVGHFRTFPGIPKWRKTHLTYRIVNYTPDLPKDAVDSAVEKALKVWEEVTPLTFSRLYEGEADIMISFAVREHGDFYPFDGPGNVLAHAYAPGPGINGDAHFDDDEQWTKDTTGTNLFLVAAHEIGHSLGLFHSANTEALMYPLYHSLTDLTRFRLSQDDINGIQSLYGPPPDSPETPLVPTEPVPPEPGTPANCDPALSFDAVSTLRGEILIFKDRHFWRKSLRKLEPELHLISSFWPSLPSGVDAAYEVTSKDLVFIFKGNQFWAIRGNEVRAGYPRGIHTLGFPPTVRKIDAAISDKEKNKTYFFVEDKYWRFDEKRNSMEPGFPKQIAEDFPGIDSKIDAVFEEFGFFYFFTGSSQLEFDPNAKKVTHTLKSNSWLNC
Chain of 72 kDa type IV collagenase (P08253 whole entry): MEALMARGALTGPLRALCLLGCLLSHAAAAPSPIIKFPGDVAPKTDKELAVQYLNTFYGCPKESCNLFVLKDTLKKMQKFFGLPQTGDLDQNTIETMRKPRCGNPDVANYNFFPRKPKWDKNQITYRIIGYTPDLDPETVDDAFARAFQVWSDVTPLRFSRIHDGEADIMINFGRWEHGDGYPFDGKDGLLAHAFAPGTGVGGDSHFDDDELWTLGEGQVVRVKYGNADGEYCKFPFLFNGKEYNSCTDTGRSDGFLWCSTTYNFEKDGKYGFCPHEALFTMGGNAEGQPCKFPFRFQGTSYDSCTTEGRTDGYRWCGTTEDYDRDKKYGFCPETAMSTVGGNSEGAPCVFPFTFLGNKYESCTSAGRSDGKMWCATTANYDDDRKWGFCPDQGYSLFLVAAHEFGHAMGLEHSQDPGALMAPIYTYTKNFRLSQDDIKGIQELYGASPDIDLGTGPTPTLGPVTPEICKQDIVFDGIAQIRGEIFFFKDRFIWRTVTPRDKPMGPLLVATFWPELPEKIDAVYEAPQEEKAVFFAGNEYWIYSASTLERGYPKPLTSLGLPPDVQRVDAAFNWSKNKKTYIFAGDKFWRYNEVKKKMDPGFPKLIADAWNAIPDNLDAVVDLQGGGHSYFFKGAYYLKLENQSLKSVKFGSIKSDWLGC
Chain of Neutrophil collagenase (P22894 whole entry): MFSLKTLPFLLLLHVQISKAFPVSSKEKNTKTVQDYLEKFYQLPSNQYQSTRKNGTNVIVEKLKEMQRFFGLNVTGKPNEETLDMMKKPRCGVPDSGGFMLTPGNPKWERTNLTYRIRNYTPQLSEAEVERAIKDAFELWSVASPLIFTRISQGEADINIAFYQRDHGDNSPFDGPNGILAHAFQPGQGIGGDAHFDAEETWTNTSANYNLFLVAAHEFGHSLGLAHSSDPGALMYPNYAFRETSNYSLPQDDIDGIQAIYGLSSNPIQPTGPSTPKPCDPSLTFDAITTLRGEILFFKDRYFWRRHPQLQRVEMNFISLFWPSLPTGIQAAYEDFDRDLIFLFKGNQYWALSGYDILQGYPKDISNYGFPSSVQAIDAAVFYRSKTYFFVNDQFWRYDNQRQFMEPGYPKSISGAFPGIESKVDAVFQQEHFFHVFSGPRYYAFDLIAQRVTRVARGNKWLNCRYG

Q: What does the source list for `COCCc1cc(COc2ccc([C@]3(N)CCN([C@H](CC(C)C)C(=O)NO)C3=O)cc2)c2ccccc2n1`?
A: Ratio IC50 [1]: > 500; Activity [2]: 8.01 ×10⁶ /uL; IC50 [3]: 13 nM; Ratio IC50 [4]: > 500; Activity [5]: 21.04 U/L; Ratio IC50 [6]: > 500; Activity [7]: 0.878%; half-life [8]: 65.4 min; Activity [9]: 0.703%; IC50 [10]: 1090 nM; AUC [11]: 19700 ng·h/mL; IC50 [12]: 1010 nM; IC50 [13]: 1020 nM; Activity [14]: 121.2 U/L; Activity [15]: 8.41 ×10³ /uL; Activity [16]: Non-toxic; Activity [17]: 140.2 U/L; Activity [18]: 0.17 mg/dL; ED50 [19]: 3.1 mg/kg; IC50 [20]: 1080 nM; Ratio IC50 [21]: > 500; IC50 [22]: 1000 nM; Kel [23]: 0.44 h⁻¹; Ratio IC50 [24]: > 500; AUC [25]: 11800 ng·h/mL; Activity [26]: 0.358%; Activity [27]: 0.203%; bioavailability [28]: 59.7%; Activity [29]: 3.801%; IC50 [30]: 1200 nM; t1/2 [31]: 3.81 h; k el [32]: 0.000283 s⁻¹
